How the values were obtained:
[1] = biological target: T1, human XIAP-BIR3 domain (residues 241-356) (Homo sapiens, UniProt P98170); assay: 15N-HSQC NMR binding confirmation; details: 100 μM protein, 100 μM embelin, 30° C.
T1 construct: The human XIAP-BIR3 domain (residues 241-356) fused to His-tag; His-tag (pET-28b); made in house; host or cells: Escherichia coli BL21(DE3)
Procedure: To conclusively confirm that embelin binds to the XIAP BIR3 domain where Smac and caspase-9 bind, and to rule out any potential false positive, an analysis using nuclear magnetic resonance (NMR) Heteronuclear Single Quantum Coherence Spectroscopy (HSQC) method was performed. The human XIAP-BIR3 domain (residues 241-356) fused to His-tag was expressed in M9 medium containing ^15N ammonium chloride to uniformly label protein with ^15N and was purified. ^15N HSQC NMR spectra were recorded with embelin and without embelin at 30° C. […]
The NMR experiments were performed on a Varian Inova 500 with pulse field gradient (PFG) HSQC, with the water flip back to maximize the signal intensity and to minimize the destruction from the water signal (see, e.g., Grzesiek, S., et al., J. Am. Chem. Soc. 115, 12593-94 (1993); Sheppard, G. S., et al., Abstr. Pap.-Am. Chem. Soc. 213, 81 (1997)) (300 μM XIAP, 50 mM phosphate buffer pH 7.3, 2 mM DTT at 25° C.). ^15N HSQC NMR spectra were recorded with samples containing 100 μM of the ^15N protein in 50 mM Tris (pH 7.2), 50 μM Zn(Cl)2, 1 mM DTT at 30° C. with 100 μM embelin and without it. […]

[2] = test system: PC-3 prostate cancer cells; assay: WST-1 cell growth inhibition assay, PC-3; type: cell-based; details: Homo sapiens, 120 h; PC-3, WST-1, five days
Procedure: FIG. 5 presents inhibition of cell growth by embelin in prostate cancer cells (PC-3 and LnCap) and its selectivity in normal human prostate epithelial cells (PrEC) and normal human fibroblast cell line, WI-38. 5000 cells per well in a 96-well cell culture plate were treated with various concentrations of embelin in triplicate. Five days later, the cell growth was measured by the WST-1 cell growth assay kit […] The cell growth results are expressed as the percent of control and calculated from the percent of absorbance of treated wells versus that of vehicle control.
Human prostate cancer cell lines (PC-3, LNCap, CL-1, DU-145), and normal human fibroblast cell line WI-38 were obtained from the American Type Culture Collection (ATCC), were grown and maintained in Dulbecco's modified Eagle's medium (DMEM) containing 10% FBS (Invitrogen Corporation). Normal human prostate epithelial cells (PrEC) were obtained from Clonetics (Cambrex Inc., MD) and maintained in the special medium provided by the company. […]
Cell growth was determined by the MTT-based assay using Cell Proliferation Reagent WST-1 (Roche) according to the manufacturer's instruction. […] Absorbance was measured with a plate reader at […] with correction at […]. The results are expressed as the percent of absorbance of treated wells versus that of vehicle control.

[3] = test system: Jurkat-XIAP cells; assay: Cell growth assay, Jurkat-XIAP; type: cell-based; details: essentially identical to that in Jurkat-Vec cells
Procedure: FIG. 9 presents inhibition of cell growth by embelin in Jurkat-Vec and Jurkat-XIAP cells. The cell growth results are expressed as the percent of control and calculated from the percent of absorbance of treated wells versus that of vehicle control.
Human prostate cancer cell lines (PC-3, LNCap, CL-1, DU-145), and normal human fibroblast cell line WI-38 were obtained from the American Type Culture Collection (ATCC), were grown and maintained in Dulbecco's modified Eagle's medium (DMEM) containing 10% FBS (Invitrogen Corporation). Normal human prostate epithelial cells (PrEC) were obtained from Clonetics (Cambrex Inc., MD) and maintained in the special medium provided by the company. Jurkat T-cells stably transfected with either empty vector (Jurkat-Vec), or XIAP (Jurkat-XIAP) and were cultured in RPMI 1640 containing 10% fetal calf serum and 1 ug/ml puromycin. Cell cultures were maintained in a humidified incubator at 37° C. and 5% CO2.
Cell growth was determined by the MTT-based assay using Cell Proliferation Reagent WST-1 (Roche) according to the manufacturer's instruction. The WST-1 assay is a colorimetric assay that measures the reduction of WST-1 by mitochondrial succinate dehydrogenase, which belongs to the respiratory chain of the mitochondria and is active only in viable cells. The WST-1 enters the cells and passes into the mitochondria, where it is reduced to a soluble, colored formazan product. The amount of formazan dye formed directly correlates to the number of metabolically active cells in the culture. Cells (5000 cells/well) were grown in medium with 10% FBS, and various concentrations of drugs were added to the cells in triplicate. […] Absorbance was measured with a plate reader at […] with correction at […]. The results are expressed as the percent of absorbance of treated wells versus that of vehicle control.

T1 sequence (P98170 241-356): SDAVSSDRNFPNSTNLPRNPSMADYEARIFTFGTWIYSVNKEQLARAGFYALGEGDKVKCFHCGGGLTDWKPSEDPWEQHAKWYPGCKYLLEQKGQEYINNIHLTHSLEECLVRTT

IC50 [2]: 3.7 µM
SMILES: CCCCCCCCCCCC1=C(O)C(=O)C=C(O)C1=O [embelin]
binding site on XIAP BIR3 by 15N HSQC NMR [1]: binds to the surface groove in the XIAP BIR3 domain where Smac and caspase-9 bind | activity in cell growth assay [3]: weak activity

— US7910621B2, “Small molecule antagonists of XIAP family proteins” (The Regents of the University of Michigan, priority 2004, dated 2011)
